Patent publication US6172064A, “Formamides as therapeutic agents” (Glaxo Wellcome Inc., priority 1999, dated 2001)
Read-outs that look alike come from different tables or passages of the source.

How the values were obtained:
[1] = target: 50 kD truncated gelatinase B (MMP-9); experiment: Matrix Metalloprotease Inhibition, Gelatinase B; format: biochemical; conditions: 100 pM enzyme, 10 μM fluorogenic substrate, pH=7.6; approximate IC50 equivalent to Ki ([S]<<Km)
Description: (§1) The potency of compounds of the invention as inhibitors of 19 kD truncated collagenase-1 (MMP-1), 20 kD truncated collagenase-3 (MMP-13), stromelysin-1 (MMP-3), and 50 kD truncated gelatinase B (MMP-9) is determined according to the general procedure of Bickett et. al. (Anal. Biochem. 1993, 212, 58-64) using the fluorogenic substrate, DNP-Pro-Cha-Gly-Cys(Me)-His-Ala-Lys(NMA)--NH2 (DNP=2,4-dinitrophenyl,NMA=N-methylanthranilic acid). Assays are conducted in a total volume of 0.180 mL assay buffer (200 mM NaCl, 50 mM Tris, 5 mM CaCl2, 10 μM ZnSO4, 0.005% Brij 35, pH=7.6) in each well of a black 96 well microtiter plate. 19 kD collagenase-1, 20 kD collagenase-3, stromelysin-1,and 50 kD gelatinase B concentrations are adjusted to 500 pM, 30 pM, 5 nM, and 100 pM, respectively. A dose response is generated using an eleven-point, 3-fold serial dilution with initial starting test compound concentrations of 100, 10, or 1 μM. Inhibitor and enzyme reactions are incubated for 30 minutes at ambient temperature and then initiated with 10 μM fluorogenic substrate (above). The product formation is measured at Excitation343 /Emission450 nm after 45-180 minutes using a Fluostar SLT fluorescence analyzer. Percent inhibition is calculated at each inhibitor concentration and the data were plotted using standard curve fitting programs. Approximate IC50 values were determined from these curves. Assays were run at low substrate concentration ([S]<<Km) such that the calculated IC50 values are equivalent to Ki within experimental error.

[2] = target: T1, 19 kD truncated collagenase-1 (MMP-1) (Homo sapiens, UniProt P03956); experiment: Matrix Metalloprotease Inhibition, Collagenase-1; format: biochemical; conditions: 500 pM enzyme, 10 μM fluorogenic substrate, pH=7.6; approximate IC50 equivalent to Ki ([S]<<Km)
T1 construct: 19 kD truncated collagenase-1 (MMP-1)
T1 sequence (P03956 101-269 limits assumed): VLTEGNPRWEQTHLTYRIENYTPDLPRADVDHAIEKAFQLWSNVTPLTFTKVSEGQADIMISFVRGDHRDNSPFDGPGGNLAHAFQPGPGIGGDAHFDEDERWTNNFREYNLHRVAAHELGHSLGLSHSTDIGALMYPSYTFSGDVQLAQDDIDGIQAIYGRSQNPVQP
Description: as §1

[3] = target: T2, TNFα converting enzyme (membrane preparation from MonoMac 6 cells) (Homo sapiens, UniProt P78536); experiment: TNFα Converting Enzyme Inhibition; format: biochemical
T2 construct: Membrane preparation from MonoMac 6 cells; endogenous in cells; host or cells: MonoMac 6 cells (membrane preparation, subfractionated extract)
Description: The potency of compounds of the invention as inhibitors of cell-free tumor necrosis factor α converting enzyme is determined as follows: Membrane preparation from MonoMac 6 cells (subfractionated extract from equivalent of 6×10^6 cells per 60 μl assay) is incubated for 1 hr with 200 nM radiolabeled substrate (Biotin-SPLAQAVRSSSRT-(^3 H)P-S--NH2, 4.1 Ci/mmol, ref #0935 from Zeneca) in 10 mM hepes buffer, 250 mM sucrose, pH=7.5. The reaction is quenched by addition of streptavidin SPA beads (Amersham RPNQ0006), with excess binding capacity relative to substrate, suspended in 250 mM EDTA, pH=8.0. Binding is complete within 15 minutes and plates are counted in a Wallac 1450 Microbeta liquid scintillation counter. Percent inhibition is calculated at each inhibitor concentration and the data were plotted using standard curve fitting programs. Approximate IC50 values were determined from these curves. Assays were run at low substrate concentration ([S]<<Km) such that the calculated IC50 values are equivalent to Ki within experimental error.

stromelysin-1 (MMP-3) = stromelysin-1 (MMP-3) (Homo sapiens, UniProt P08254); experiment: Matrix Metalloprotease Inhibition, Stromelysin-1; format: biochemical; conditions: 5 nM enzyme, 10 μM fluorogenic substrate, pH=7.6; approximate IC50 equivalent to Ki ([S]<<Km)
Description: as §1

[4] = target: 20 kD truncated collagenase-3 (MMP-13); experiment: Matrix Metalloprotease Inhibition, Collagenase-3; format: biochemical; conditions: 30 pM enzyme, 10 μM fluorogenic substrate, pH=7.6; approximate IC50 equivalent to Ki ([S]<<Km)
Description: as §1

[5] = tested on: TNFα release from LPS/PMA-stimulated MonoMac 6 cells; experiment: Cell-Based TNFα Release Inhibition; conditions: Homo sapiens, MONO-MAC-6, LPS/PMA stimulation, 2 hours, 37° C.
Description: The potency of compounds of the invention as inhibitors of release of soluble tumor necrosis factor α from stimulated monocytes in vitro is determined as follows: LPS/PMA solution for assay consisting of a) 4 μL of 5 mg/mL LPS stock and b) 6 μL of 10 mg/mL PMA stock are added to 500 μL of medium (RPMI 1640 (Gibco)+10% FBS+penicillin/streptomycin+1-glutamine). This solution is then diluted 1:1000 (40 ng/mL and 120 ng/mL) for use later in the assay. Compounds (10 mM) are serially diluted 1:3 in DMSO. Compound dilutions (20 μL) are added to a sterile round bottom 96 well plate (20 μL:200 μL total volume=1:10 for final concentrations of […] for test compounds). MonoMac 6 cell suspension (130 μL, 1.5×10^6 cells/mL) is then added to each well resulting in 2×10^5 cells/well. LPS/PMA (50 μL) solution is then added to each well to begin stimulation (final concentrations of […] and 30 ng/mL respectively). The plate is incubated at 37° C. for 2 hours then spun at 1,500 rpm for 3 minutes to pellet cells. The supernatant (120 μL/well) is removed to a new round bottom 96 well plate and diluted 1:10 in PBS. Then, 20 μL of the supernatant is transferred to a Cistron TNFα ELISA plate and processed according to the manufacturer's instructions to quantitate levels of TNFα. […]

A549 Human Lung = experiment: Xenograft in vivo assay, A549; conditions: female NU/NU mice, p.o. once a day, 14 days, 30 mg/kg and 90 mg/kg
Description: (§2) Female NU/NU mice with a weight of 21±2 g are weighed and used. Control and test animals are injected subcutaneously in the axillary region with a suspension of 2×10^6 viable tumor cells in 200 uL in PBS±matrigel on day 0. Tumors are allowed to grow for 10 to 14 days prior to drug administration. Doses of test drug are given on a mg/kg basis according to the mean body weight for each cage. For each drug, two doses are used, 30 mg/kg and 90 mg/kg, and are administered by p.o. route once a day over a 14 day time span. Tumor weight is calculated from two perpendicular caliper measurements of the tumor using the formula, tumor weight=length×width2.div.2 in millimeters. For each animal, tumor weight is monitored over the course of the experiment, and expressed as the percent of the tumor's weight. For each group, the mean increase in tumor weight over the course of the experiment is calculated (tumor weightday […]-tumor weightday 14=≈tumor weight) and the results expressed as percent inhibition of tumor growth with respect to the control group [1-(≈tumor weight treated group/(≈tumor weight control group)]×100. Results are presented in Table 4. The criterion for antitumor activity is 25% inhibition of tumor growth after 2 weeks of dosing (day 14).

Colo 205 Human Colon = experiment: Xenograft in vivo assay, Colo 205; conditions: female NU/NU mice, p.o. once a day, 14 days, 30 mg/kg and 90 mg/kg
Description: as §2

[6] = tested on: Mat Ly Lu Murine Prostate; experiment: Xenograft in vivo assay, Mat Ly Lu; conditions: female NU/NU mice, p.o. once a day, 14 days, 30 mg/kg and 90 mg/kg
Description: as §2

[7] = tested on: Lewis Lung M27 Murine Lung; experiment: Xenograft in vivo assay, Lewis Lung M27; conditions: female NU/NU mice, p.o. once a day, 14 days, 30 mg/kg and 90 mg/kg
Description: as §2

B16B6 Murine Melanoma = experiment: Xenograft in vivo assay, B16B6; conditions: female NU/NU mice, p.o. once a day, 14 days, 30 mg/kg and 90 mg/kg
Description: as §2

SW 620 Human Colon = experiment: Xenograft in vivo assay, SW 620; conditions: female NU/NU mice, p.o. once a day, 14 days, 30 mg/kg and 90 mg/kg
Description: as §2

[8] = MonoMac 6 membrane preparation, 200 nM radiolabeled substrate, pH=7.5, 1 hr, approximate IC50 equivalent to Ki ([S]<<Km), read-out: TNFα Converting Enzyme Ki

Sequence of stromelysin-1 (MMP-3) (P08254 100-477): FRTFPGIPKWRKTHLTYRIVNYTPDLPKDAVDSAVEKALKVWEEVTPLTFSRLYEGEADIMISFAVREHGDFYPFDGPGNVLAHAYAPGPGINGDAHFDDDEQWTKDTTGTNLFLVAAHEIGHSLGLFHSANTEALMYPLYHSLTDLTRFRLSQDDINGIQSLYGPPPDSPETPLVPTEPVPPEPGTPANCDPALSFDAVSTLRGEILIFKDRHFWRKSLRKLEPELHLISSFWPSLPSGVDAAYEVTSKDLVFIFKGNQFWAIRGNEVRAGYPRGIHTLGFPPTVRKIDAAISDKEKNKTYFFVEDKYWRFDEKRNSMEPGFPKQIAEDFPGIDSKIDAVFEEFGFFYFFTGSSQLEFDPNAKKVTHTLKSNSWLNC
T2 sequence (P78536 215-824): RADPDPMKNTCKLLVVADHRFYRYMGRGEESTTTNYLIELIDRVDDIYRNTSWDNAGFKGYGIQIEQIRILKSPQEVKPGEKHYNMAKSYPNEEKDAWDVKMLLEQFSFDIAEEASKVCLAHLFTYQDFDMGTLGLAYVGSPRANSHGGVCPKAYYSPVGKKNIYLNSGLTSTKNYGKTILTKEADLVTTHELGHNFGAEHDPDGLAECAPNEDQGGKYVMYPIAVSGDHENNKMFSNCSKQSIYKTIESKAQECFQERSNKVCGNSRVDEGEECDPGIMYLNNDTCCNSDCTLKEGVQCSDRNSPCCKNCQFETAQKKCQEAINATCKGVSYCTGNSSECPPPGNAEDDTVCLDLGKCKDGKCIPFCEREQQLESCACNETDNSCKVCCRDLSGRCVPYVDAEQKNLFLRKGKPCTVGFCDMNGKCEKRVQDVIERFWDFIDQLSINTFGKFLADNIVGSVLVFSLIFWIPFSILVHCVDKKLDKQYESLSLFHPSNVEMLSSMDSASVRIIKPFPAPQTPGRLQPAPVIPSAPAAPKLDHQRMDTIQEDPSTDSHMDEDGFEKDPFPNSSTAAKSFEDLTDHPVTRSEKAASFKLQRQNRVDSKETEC

Row | Ki [1] | Ki [2] | Ki [3, 8] | Ki (stromelysin-1 (MMP-3)) | Ki [4] | SMILES | IC50 [5] | percent inhibition of tumor growth (A549 Human Lung) | percent inhibition of tumor growth (Colo 205 Human Colon) | percent inhibition of tumor growth [6] | Ki [3] | percent inhibition of tumor growth [7] | percent inhibition of tumor growth (B16B6 Murine Melanoma) | percent inhibition of tumor growth (SW 620 Human Colon)
1 | 0.5 to 5 nM | 5 to 50 nM | 50 to 500 nM | 50 to 500 nM | 0.001 to 0.5 nM | CNC(=O)[C@@H](NC(=O)[C@H](CCCc1cccs1)[C@H](C)N(O)C=O)C(C)(C)C [Example 3] |  |  |  |  |  |  |  | 
2 | 0.5 to 5 nM | 50 to 500 nM | 50 to 500 nM | 5 to 50 nM | 0.001 to 0.5 nM | CC(C)[C@@H]([C@@H](CCCc1ccc(Cl)cc1)C(=O)N[C@H](C(=O)NCc1cccnc1)C(C)(C)C)N(O)C=O [Example 9] |  |  |  |  |  |  |  | 
3 | 0.5 to 5 nM | 50 to 500 nM | > 500 nM | 5 to 50 nM | 0.5 to 5 nM | CNC(=O)[C@@H](NC(=O)[C@H](CCCCCc1ccccc1)[C@H](C)N(O)C=O)C(C)(C)C [Example 61, (2R,3S)-3-(Formylhydroxyamino)-2-(5-phenyl-1-pentyl)butanoic Acid [(1S)-2,2-Dimethyl-(1-methylcarbamoyl)-1-propyl]amide] |  |  |  |  |  |  |  | 
4 | 0.001 to 0.5 nM | 5 to 50 nM | > 500 nM | 5 to 50 nM | 0.001 to 0.5 nM | CNC(=O)[C@@H](NC(=O)[C@H](CCCc1ccc(Cl)cc1)[C@H](C)N(O)C=O)C(C)(C)C [Example 2] |  |  |  |  |  |  |  | 
5 | 0.5 to 5 nM | 50 to 500 nM | 50 to 500 nM | 5 to 50 nM | 0.5 to 5 nM | CNC(=O)[C@@H](NC(=O)[C@H](CCCc1ccc(C)cc1)[C@H](C)N(O)C=O)C(C)(C)C [Example 52, (2R,3S)-3-(Formylhydroxyamino)-2-(3-(4-methylphenyl)-1-propyl)butanoic Acid [(1S)-2,2-Dimethyl-(1-methylcarbamoyl)-1-propyl]amide] |  |  |  |  |  |  |  | 
6 | 0.5 to 5 nM | 50 to 500 nM | > 500 nM | 50 to 500 nM | 0.001 to 0.5 nM | C[C@@H]([C@@H](CCCc1ccc(Cl)cc1)C(=O)N[C@H](C(=O)NCc1ccccn1)C(C)(C)C)N(O)C=O [Example 20, (2R,3S)-3-(Formylhydroxyamino)-2-(3-(4-chlorophenyl)-1-propyl)-butanoic Acid [(1S)-2,2-Dimethyl-(1-(2-pyridylmethyl)carbamoyl)-1-propyl]amide] |  |  |  |  |  |  |  | 
7 | 0.5 to 5 nM | 50 to 500 nM | 50 to 500 nM | 5 to 50 nM | 0.001 to 0.5 nM | C[C@@H]([C@@H](CCCc1ccc(Cl)cc1)C(=O)N[C@H](C(=O)NCCCN1CCOCC1)C(C)(C)C)N(O)C=O [Example 24, (2R,3S)-3-(Formylhydroxyamino)-2-(3-(4-chlorophenyl)-1-propyl)-butanoic Acid[(1S)-2,2-Dimethyl-(1-(3-(4-morpholino)-1-propyl)carbamoyl)-1-propyl]amide] |  |  |  |  |  |  |  | 

Row | SMILES | Ki [1] | Ki [2] | Ki [3, 8] | Ki (stromelysin-1 (MMP-3)) | Ki [4] | IC50 [5] | percent inhibition of tumor growth (A549 Human Lung) | percent inhibition of tumor growth (Colo 205 Human Colon) | percent inhibition of tumor growth [6] | Ki [3] | percent inhibition of tumor growth [7] | percent inhibition of tumor growth (B16B6 Murine Melanoma) | percent inhibition of tumor growth (SW 620 Human Colon)
8 | CNC(=O)[C@@H](NC(=O)[C@H](CCCc1ccccc1)[C@H](C)N(O)C=O)C(C)(C)C [Example 1] | 0.5 to 5 nM | 50 to 500 nM |  | 50 to 500 nM | 0.5 to 5 nM | > 500 nM | ++++ (>100% Inhibition (Tumor Regression)) | ++ (51-75% Inhibition) | ++ (51-75% Inhibition) | 50 to 500 nM | + (26-50% Inhibition) | + (26-50% Inhibition) | ++ (51-75% Inhibition)
